These results are taken from patent US12186311B2, “Antiproliferative compounds and second active agents for combined use” (Celgene Corporation, priority 2019, dated 2025).

The subject of assay [1] is non-selective α1 adrenergic receptor in rat cerebral cortex. The assay is described as follows: α1 adrenergic receptor binding at 10 μM ([3H]prazosin). To be noted: inhibition of control [3H]prazosin binding. As for the experimental part:
(§1) α1 Adrenergic and Dopamine D2 Receptors. Methods: Binding and functional assays for al adrenergic and dopamine D2 receptors were performed by Eurofins Cerep according to their methods.
α1 Adrenergic Receptor. Binding at 10 μM. The binding assay evaluated the affinity of test article for the non-selective al adrenergic receptor in rat cerebral cortex. Membrane homogenates of cerebral cortex were incubated in duplicate for 60 minutes at room temperature with 0.25 nM [^3H]prazosin in the absence or presence of test articles at 10 μM. After the incubation period, samples were filtered through glass fiber filters, the filters dried and then counted for radioactivity using a scintillation counter. Results are expressed as mean percent inhibition of control radioligand binding.

Assay [2] deals with T1, dopamine D2S receptor in transfected HEK-293 cells (Homo sapiens, UniProt P14416).
T1 construct: host or cells: HEK-293
The assay is described as follows: Dopamine D2S receptor binding at 10 μM. The note with it: read-out: Dopamine D2S % Inh. (@10 uM). As for the experimental part: as §1
Dopamine D2 Receptor. Binding at 10 μM. The binding assay evaluated the affinity of test articles for the dopamine D2 receptor in transfected human embryonic kidney (HEK)-293 cells. For determining the binding in the D2s receptor assay, test article was incubated with 0.3 nM [^3H] methylspiperone or 1 nM [^3H] 7-hydroxy-2-N,N-dipropylaminotetralin (7-OH-DPAT). [^3H] Methylspiperone at 0.3 nM also was used as control ligand in the D2L binding assay. Cell membrane homogenates were incubated in duplicate at room temperature for 60 minutes with ligand in the absence or presence of test articles at 10 μM. After the incubation period, samples were filtered through glass fiber filters, the filters dried and then counted for radioactivity using a scintillation counter. Results are expressed as mean percent inhibition of control radioligand binding.

Assay [3] relates to K12PE (parental) cell line. Put plainly: Cell proliferation, combination with Compound 2, combination index (Calcusyn), K12PE. The note with it: 3 days. In kind it is cell-based. As for the experimental part: (§2) K12PE (parental) and K12PE-PR (pomalidomide resistant) cell lines were treated with various doses of Compound 2 in combination with increasing doses of a BRD4 inhibitor JQ1 for 3 days. Cell proliferation was analyzed using thymidine incorporation assays. Combination index values were calculated by Calcusyn and values below 10^0 represented the synergy between the combination treatments. The results are shown in FIG. 3A (K12PE), FIG. 3B (K12PE combination index), FIG. 3C (K12PE-PR), and FIG. 3D (K12PE-PR combination index), respectively.
(§3) AMO1, AMO1-PR (pomalidomide resistant), K12PE and K12PE-PR (pomalidomide resistant) cell lines were treated with increasing doses of Compound 2 in combination with an AURKB inhibitor (AZD 1152). Changes in cell proliferation were studied in response to monotherapy and combinations at Day 3 post treatment. Combination index values were calculated by Calcusyn and values below […] represented the synergy between the combination treatments. AUKKB is one of the key target gene of MDMS8 (molecularly defined myeloma segment 8), a high risk cluster identified from myeloma genome project. The results are shown in FIG. 8A (AMO1 combination index), FIG. 8B (K12PE combination index), FIG. 8C (AMO1-PR combination index), and FIG. 8D (K12PE-PR combination index), respectively. […]

Assay [4] has as its system K12PE-PR (pomalidomide resistant) cell line. The assay is described as follows: Cell proliferation, combination with Compound 2, combination index (Calcusyn), K12PE-PR. In kind it is cell-based. The note with it: 3 days. As for the experimental part: as §2, §3
Assay [5] relates to AMO1 (parental) cell line. The assay is described as follows: Cell proliferation, combination with Compound 2, combination index (Calcusyn), AMO1. The note with it: AMO1, 3 days. In kind it is cell-based. As for the experimental part:
(§4) AMO1 (parental) and AMO1-PR (pomalidomide resistant) cell lines were treated with various doses of Compound 2 in combination with increasing doses of an MEK inhibitor trametinib for 3 days. Cell proliferation was analyzed using thymidine incorporation assays. Combination index values were calculated by Calcusyn and values below 10^0 represented the synergy between the combination treatments. The results are shown in FIG. 4A (AMO1), FIG. 4B (AMO1 combination index), FIG. 4C (AMO1-PR), and FIG. 4D (AMO1-PR combination index), respectively.
(§5) AMO1 and AMO1-PR (pomalidomide resistant) cell lines were treated with increasing doses of Compound 2 in combination with a PLK1 inhibitor (BI2536). Changes in cell proliferation were studied in response to monotherapy and combinations at Day 3 post treatment. Combination Index was calculated using Calcusyn based method. Combination index values were calculated by Calcusyn and values below 10^0 represented the synergy between the combination treatments. PLK1 is one of the key target gene of MDMS8 (molecularly defined myeloma segment 8), a high risk cluster identified from myeloma genome project. The results are shown in FIG. 6A (AMO1), FIG. 6B (AMO1 combination index), FIG. 6C (AMO1-PR), and FIG. 6D (AMO1-PR combination index), respectively. Inhibition of MDMS8 target gene PLK1 with Compound 2 is synergistic in AMO1 and AMO1-PR cells.
(§6) AMO1 and AMO1-PR (pomalidomide resistant) cell lines were treated with increasing doses of Compound 2 in combination with an NEK2 inhibitor (JH295). Changes in cell proliferation were studied in response to monotherapy and combinations at Day 3 post treatment. Combination index values were calculated by Calcusyn and values below 10^0 represented the synergy between the combination treatments. NEK2 is one of the key target gene of MDMS8 (molecularly defined myeloma segment 8), a high risk cluster identified from myeloma genome project. The results are shown in FIG. 7A (AMO1 combination index) and FIG. 7B (AMO1-PR combination index), respectively. Inhibition of MDMS8 target gene NEK2 with Compound 2 is synergistic in AMO1 and AMO1-PR cells.
(§7) AMO1, AMO1-PR (pomalidomide resistant), K12PE and K12PE-PR (pomalidomide resistant) cell lines were treated with increasing doses of Compound 2 in combination with an AURKB inhibitor (AZD 1152). […] Combination index values were calculated by Calcusyn and values below […] represented the synergy between the combination treatments. […]
(§8) AMO1, AMO1-PR (pomalidomide resistant) cell lines were treated with increasing doses of Compound 2 in combination with a BIRC5 inhibitor (YM155). […] Combination index values were calculated by Calcusyn and values below 10^0 represented the synergy between the combination treatments. […]

Assay [6] concerns AMO1-PR (pomalidomide resistant) cell line. The assay is described as follows: Cell proliferation, combination with Compound 2, combination index (Calcusyn), AMO1-PR. The class given is cell-based. The note with it: 3 days. As for the experimental part: as §4, §5, §6, §7, §8
For another assay, the system named is OPM-2.P10 cells. The assay is described as follows: 7 day combination assay (Annexin V/7-AAD flow cytometry, fractional product method), OPM.2-P10. The class given is cell-based. To be noted: OPM-2.P10, 7 day assay. As for the experimental part:
(§9) Additional second agents, including DNA methyltransferase inhibitors, EZH2 inhibitors, DOT1L inhibitors, and BET inhibitors were selected for combination studies with Compound 2 in relapsed refractory multiple myeloma. Five MM cell lines with acquired or inherent resistance to lenalidomide or pomalidomide were included in the studies (OPM.2-P10, H929-1051, KMS12BM PR, L363, and JJN3). The effect of Compound 2 in combination with these second agents on MM cells were assessed in a 7 day in vitro assay. The MM cells were seeded at densities according to the growth rate of each cell line with the aim of achieving 50-100K cells by Day 7. The assay was performed in a 96-well plate. All MM cell lines were cultured in an incubator at 37° C. with 5% CO2 using the indicated cell culture media containing 1×Penicillin-Streptomycin. The MM cells were primed for 3 days with these second agents at the single agent IC50 value. […] Compound 2 was added to the cells at a dose range of 30 μM-0.00018 μM, depending on the cell line, for a 8 point dose response curve. The cells were incubated at 37° C. for an additional 4 days. At the end of the 7 day treatment, the MM cells were stained with Annexin V and 7-AAD and analyzed on a flow cytometer. Live MM cells were identified as Annexin V and 7-AAD double negative cells. […]
(A flow cytometer gives signals particle by particle.)

The next assay deals with H929-1051 cells. Put plainly: 7 day combination assay (Annexin V/7-AAD flow cytometry, fractional product method), H929-1051. The note with it: H929-1051, 7 day assay. In kind it is cell-based. As for the experimental part: as §9
The subject of the next assay is H929 cell line. Put plainly: Thymidine incorporation, combination with Compound 2, combination index (Calcusyn), H929. The class given is cell-based. The note with it: H929, 3 days. As for the experimental part: H929 cell line was treated with various doses of Compound 2 in combination with increasing doses of an EZH2 inhibitor UNC1999 for 3 days. Cell proliferation was analyzed using thymidine incorporation assays. Combination index values were calculated by Calcusyn and values below 10^0 represented the synergy between the combination treatments. The results are shown in FIG. 5A (H929) and FIG. 5B (H929 combination index).

Assay [7] deals with acute myeloid leukemia (AML). The note with it: administered alone; cited from earlier work.

T1 sequence (P14416 1-414 isoform P14416-2): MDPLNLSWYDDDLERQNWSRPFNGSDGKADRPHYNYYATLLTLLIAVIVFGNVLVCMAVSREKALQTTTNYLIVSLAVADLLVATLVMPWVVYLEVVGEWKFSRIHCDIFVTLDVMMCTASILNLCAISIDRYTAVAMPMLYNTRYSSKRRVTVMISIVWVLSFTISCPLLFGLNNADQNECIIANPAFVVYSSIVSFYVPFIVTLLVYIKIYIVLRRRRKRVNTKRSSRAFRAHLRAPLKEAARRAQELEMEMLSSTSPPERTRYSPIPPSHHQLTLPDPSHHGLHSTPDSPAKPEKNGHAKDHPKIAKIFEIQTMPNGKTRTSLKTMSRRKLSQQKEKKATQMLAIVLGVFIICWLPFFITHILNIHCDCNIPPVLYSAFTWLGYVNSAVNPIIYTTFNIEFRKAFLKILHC

For `N#Cc1ccc(N2CCN(Cc3ccc(COc4cccc5c4CN(C4CCC(=O)NC4=O)C5=O)cc3)CC2)c(F)c1` (racemic) [Compound 1, 4-(4-(4-(((2-(2,6-dioxopiperidin-3-yl)-1-oxoisoindolin-4-yl)oxy)methyl)benzyl)piperazin-1-yl)-3-fluorobenzonitrile], the “Adrenergic α1 % Inh. (@10 uM)” value in [1] is listed as 67%. Also, the inhibition at 10 µM in assay [2] came to 55%.

With `O=C1CCC(N2Cc3c(OCc4ccc(CN5CCN(c6ccc(F)cc6F)CC5)cc4)cccc3C2=O)C(=O)N1` (racemic) [Compound A, 3-(4-((4-((4-(2,4-difluorophenyl)piperazin-1-yl)methyl)benzyl)oxy)-1-oxoisoindolin-2-yl)piperidine-2,6-dione], the “Adrenergic α1 % Inh. (@10 uM)” value in [1] turned out to be 102%. Also, in assay [2], the inhibition at 10 µM was found to be 99%.

Regarding `CCN(CCCOc1ccc2c(Nc3cc(CC(=O)Nc4cccc(F)c4)[nH]n3)ncnc2c1)CCOP(=O)(O)O` [AZD 1152], the “synergy with Compound 2 (combination index)” value (shortened to “synergy … (combination index)”) in assay [3], in assay [4], in assay [5] and in assay [6] was “synergistic” each time.

With `N#Cc1ccc(N2CCN(Cc3ccc(COc4cccc5c4CN([C@H]4CCC(=O)NC4=O)C5=O)cc3)CC2)c(F)c1` [Compound 2, (S)-4-(4-(4-(((2-(2,6-dioxopiperidin-3-yl)-1-oxoisoindolin-4-yl)oxy)methyl)benzyl)piperazin-1-yl)-3-fluorobenzonitrile], in [1], the “Adrenergic α1 % Inh. (@10 uM)” value is given as 62%. Further, the inhibition at 10 µM in assay [2] worked out at 52%.

With `Cn1cc(-c2cc(S(C)(=O)=O)ccc2OCC2CC2)c2ccccc2c1=O` [Compound C, 4-[2-(cyclopropylmethoxy)-5-(methanesulfonyl)phenyl]-2-methylisoquinolin-1(2H)-one], the “synergy in combination with Compound 2” value with OPM-2.P10 cells and in the assay on H929-1051 cells was “significant synergy” throughout.

Turning to `Cc1sc2c(c1C)C(c1ccc(Cl)cc1)=N[C@@H](CC(=O)OC(C)(C)C)c1nnc(C)n1-2` [JQ1, (S)-tert-butyl 2-(4-(4-chlorophenyl)-2,3,9-trimethyl-6H-thieno[3,2-f][1,2,4]triazolo[4,3-a][1,4]diazepin-6-yl)acetate], the “synergy … (combination index)” value in assay [3] and in [4] was “synergistic activity with Compound 2” each time.

Turning to `CCCc1cc(C)[nH]c(=O)c1CNC(=O)c1cc(-c2ccc(N3CCN(C(C)C)CC3)nc2)cc2c1cnn2C(C)C` [UNC1999, 1-Isopropyl-6-(6-(4-isopropylpiperazin-1-yl)pyridin-3-yl)-N-((6-methyl-2-oxo-4-propyl-1,2-dihydropyridin-3-yl)methyl)-1H-indazole-4-carboxamide], the “synergy … (combination index)” value in the assay on H929 cell line was “synergistic activity with Compound 2”.

As for “CT-011: anti-PD-1 antibody, a humanized antibody”, the “response in treating acute myeloid leukemia (AML) at relapse” value in assay [7] was “failed to show response”.
